US20120270237A9, “METHODS FOR THE IDENTIFICATION OF KINASE INTERACTING MOLECULES AND FOR THE PURIFICATION OF KINASE PROTEINS” (Cellzone AG, priority 2009, published 2012)

What was measured:
Experiment in all cases: Kinobeads competition binding, HL60 cell lysate
Set-up in all cases: endogenous in cells
Details in all cases: 10 μM free compound
CaMK2d = CaMK2d (Homo sapiens, UniProt Q13557)
Method: (§1) To one aliquot of cell lysate 10 μM of the free compound (FIG. 3, CZC31326) was added and allowed to bind to proteins in the lysate. Then the affinity matrix with the immobilized compound (Example 1) was added to capture proteins that were not interacting with the previously added free compound. Beads were separated from the lysate and bead bound proteins were eluted in SDS sample buffer and subsequently separated by SDS-Polyacrylamide gel electrophoresis (FIG. 4). Suitable gel bands were cut out and subjected to in-gel proteolytic digestion with trypsin. The second lysate aliquot was processed identically, however no free compound was added (DMSO solvent control). Peptides originating from samples 1 and 2 were labeled with iTRAQ reagents (iTRAQ 114 and iTRAQ 117) and the combined samples were analyzed with a nano-flow liquid chromatography system coupled online to a tandem mass spectrometer (LC-MS/MS) experiment followed by iTRAQ reporter ion quantification in the MS/MS spectra (Ross et al., 2004. Mol. Cell. Proteomics 3(12):1154-1169). Further experimental protocols can be found in WO2006/134056 and a previous publication (Bantscheff et al., 2007. Nature Biotechnology 25, 1035-1044). Sepharose-beads with the immobilized compound (100 μl beads per pull-down experiment) were equilibrated in lysis buffer and incubated with a cell lysate sample containing 50 mg of protein on an end-over-end shaker (Roto Shake Genie, Scientific Industries Inc.) for 2 hours at 4° C. Beads were collected, transferred to Mobicol-columns (MoBiTech 10055) and washed with 10 ml lysis buffer containing 0.4% NP40 detergent, followed by 5 ml lysis buffer containing 0.2% detergent. To elute bound proteins, 60 μl 2×SDS sample buffer was added to the column. The column was incubated for 30 minutes at 50° C. and the eluate was transferred to a siliconized microfuge tube by centrifugation. Proteins were then alkylated with 108 mM iodoacetamid. Proteins were then separated by SDS-Polyacrylamide electrophoresis (SDS-PAGE). The peptide extracts of samples treated with 10 μM of free compound (CZC31326) and the solvent control (0.5% DMSO) were treated with different variants of the isobaric tagging reagent (iTRAQ Reagents Multiplex Kit, part number 4352135, Applied Biosystems, Foster City, Calif., USA). The iTRAQ reagents are a set of multiplexed, amine-specific, stable isotope reagents that can label peptides on amino groups in up to four different biological samples enabling simultaneous identification and quantitation of peptides. The iTRAQ reagents were used according to instructions provided by the manufacturer. The samples were resuspended in 10 μl 50 mM TEAB solution, pH 8.5 and 10 μl ethanol were added. The iTRAQ reagent was dissolved in 120 μl ethanol and 10 μl of reagent solution were added to the sample. The labeling reaction was performed at room temperature for one hour on a horizontal shaker and stopped by adding 5 μl of 100 mM TEAB and 100 mM glycine in water. The two labeled sampled were then combined, dried in a vacuum centrifuge and resuspended in 10 μl of 0.1% formic acid in water. Relative protein quantitation was performed using peak areas of iTRAQ reporter ion signals essentially as described in an earlier publication (Bantscheff et al., 2007. Nature Biotechnology 25, 1035-1044).

CaMKK2 = CaMKK2 (Homo sapiens, UniProt Q96RR4)
CaMKK2, sequence (Q96RR4 whole entry): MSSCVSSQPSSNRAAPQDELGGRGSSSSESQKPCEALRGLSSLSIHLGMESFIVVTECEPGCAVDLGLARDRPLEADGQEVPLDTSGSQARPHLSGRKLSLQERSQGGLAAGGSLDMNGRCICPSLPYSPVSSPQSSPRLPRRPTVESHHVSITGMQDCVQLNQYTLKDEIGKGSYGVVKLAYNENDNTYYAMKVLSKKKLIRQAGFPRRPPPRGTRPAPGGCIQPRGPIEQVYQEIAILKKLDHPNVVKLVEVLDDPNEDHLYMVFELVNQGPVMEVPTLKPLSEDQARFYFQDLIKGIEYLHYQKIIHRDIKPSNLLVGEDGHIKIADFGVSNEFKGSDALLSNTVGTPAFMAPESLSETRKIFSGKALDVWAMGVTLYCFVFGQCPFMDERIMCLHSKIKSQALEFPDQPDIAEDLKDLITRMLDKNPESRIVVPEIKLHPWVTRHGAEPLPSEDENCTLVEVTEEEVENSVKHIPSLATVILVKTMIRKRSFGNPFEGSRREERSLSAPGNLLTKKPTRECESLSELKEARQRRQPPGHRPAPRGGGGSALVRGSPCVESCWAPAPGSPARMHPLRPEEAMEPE
Method: as §1

PKD3 = molecular target: T1, PKD3 (Homo sapiens, UniProt O94806)
T1 sequence (O94806 1-890): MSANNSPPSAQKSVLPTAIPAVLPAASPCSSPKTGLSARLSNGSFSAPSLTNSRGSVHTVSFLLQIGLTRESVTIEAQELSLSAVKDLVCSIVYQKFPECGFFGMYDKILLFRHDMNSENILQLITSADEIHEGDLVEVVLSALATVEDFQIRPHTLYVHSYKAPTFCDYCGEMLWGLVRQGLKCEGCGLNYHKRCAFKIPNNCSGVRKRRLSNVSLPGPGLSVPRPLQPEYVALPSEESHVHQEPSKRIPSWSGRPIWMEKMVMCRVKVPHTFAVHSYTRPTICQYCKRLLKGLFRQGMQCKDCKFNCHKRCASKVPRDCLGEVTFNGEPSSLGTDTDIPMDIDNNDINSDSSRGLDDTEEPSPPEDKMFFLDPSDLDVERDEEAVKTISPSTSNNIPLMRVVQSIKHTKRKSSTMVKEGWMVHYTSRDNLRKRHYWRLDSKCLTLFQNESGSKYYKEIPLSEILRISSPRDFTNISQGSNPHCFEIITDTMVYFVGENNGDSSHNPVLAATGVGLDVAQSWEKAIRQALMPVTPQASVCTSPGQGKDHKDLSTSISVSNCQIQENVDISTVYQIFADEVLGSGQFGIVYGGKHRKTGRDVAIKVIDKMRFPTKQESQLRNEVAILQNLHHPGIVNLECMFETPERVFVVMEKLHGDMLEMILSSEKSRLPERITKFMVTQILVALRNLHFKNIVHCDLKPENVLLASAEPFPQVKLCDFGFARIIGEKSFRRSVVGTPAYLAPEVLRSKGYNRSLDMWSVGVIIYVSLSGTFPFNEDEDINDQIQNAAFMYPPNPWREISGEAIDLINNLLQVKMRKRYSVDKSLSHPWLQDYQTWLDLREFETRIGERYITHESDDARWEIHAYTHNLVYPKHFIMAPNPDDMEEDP
Method: as §1

CaMK2d, sequence (Q13557 whole entry): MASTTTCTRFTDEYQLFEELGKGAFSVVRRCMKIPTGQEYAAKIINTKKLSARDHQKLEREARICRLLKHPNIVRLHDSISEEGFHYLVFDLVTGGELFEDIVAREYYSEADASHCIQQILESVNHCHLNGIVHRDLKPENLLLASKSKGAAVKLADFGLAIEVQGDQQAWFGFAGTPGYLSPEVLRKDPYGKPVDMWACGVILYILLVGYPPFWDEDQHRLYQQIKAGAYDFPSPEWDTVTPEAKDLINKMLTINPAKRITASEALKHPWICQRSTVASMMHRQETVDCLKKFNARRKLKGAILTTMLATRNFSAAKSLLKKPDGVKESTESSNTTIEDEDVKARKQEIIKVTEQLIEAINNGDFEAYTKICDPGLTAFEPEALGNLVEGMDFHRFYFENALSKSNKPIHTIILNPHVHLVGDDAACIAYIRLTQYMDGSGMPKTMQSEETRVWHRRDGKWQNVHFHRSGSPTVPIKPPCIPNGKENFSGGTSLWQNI

Compound `CS(=O)(=O)Nc1ccccc1Nc1nc(Nc2cccc(OCCN)c2)ncc1Cl` [CZC31326, N-(2-(2-(3-(2-aminoethoxy)phenylamino)-5-chloropyrimidin-4-ylamino)phenyl)methanesulfonamide] has an inhibition at 10 µM (CaMK2d) of 90.4%, an inhibition at 10 µM (CaMKK2) of 98.1% and an inhibition at 10 µM (PKD3) of 96.9%.
